For orientation: EC50 means the midpoint of the concentration-response curve. As a reminder, the AC50 is the midpoint of the concentration-response curve, whichever way the signal moves. In general, IC50 refers to the concentration that inhibits the measured activity by half.

8 molecules from ChEMBL document CHEMBL1201862, “PubChem BioAssay data set” (2004) can be followed below.

Calls of active or inactive are those of the source.

The target of one assay is T1, Protein RecA (Mycobacterium tuberculosis, UniProt P9WHJ3).
T1 sequence (P9WHJ3 whole entry): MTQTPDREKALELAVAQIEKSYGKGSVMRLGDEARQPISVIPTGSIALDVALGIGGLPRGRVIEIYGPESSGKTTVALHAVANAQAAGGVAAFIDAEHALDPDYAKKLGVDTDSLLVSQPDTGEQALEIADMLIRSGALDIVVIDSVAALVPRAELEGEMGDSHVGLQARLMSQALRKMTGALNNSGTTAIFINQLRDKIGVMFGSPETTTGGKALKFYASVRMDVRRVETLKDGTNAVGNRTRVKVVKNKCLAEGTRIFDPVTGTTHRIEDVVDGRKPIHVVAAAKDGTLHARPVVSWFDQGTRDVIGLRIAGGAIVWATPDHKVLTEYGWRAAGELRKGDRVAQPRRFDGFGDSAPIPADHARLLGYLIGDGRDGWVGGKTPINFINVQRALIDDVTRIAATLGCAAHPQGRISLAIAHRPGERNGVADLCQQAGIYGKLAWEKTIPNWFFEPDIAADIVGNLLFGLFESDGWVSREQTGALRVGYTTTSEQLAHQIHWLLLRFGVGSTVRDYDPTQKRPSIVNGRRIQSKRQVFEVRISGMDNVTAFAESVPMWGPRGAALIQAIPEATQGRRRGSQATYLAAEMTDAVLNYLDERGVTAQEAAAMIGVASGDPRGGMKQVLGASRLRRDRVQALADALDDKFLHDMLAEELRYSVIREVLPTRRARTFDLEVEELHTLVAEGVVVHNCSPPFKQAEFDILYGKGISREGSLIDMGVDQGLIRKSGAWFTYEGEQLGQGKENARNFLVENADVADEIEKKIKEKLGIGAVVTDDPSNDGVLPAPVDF
In words: Fluorescence Cell-Free Homogeneous Dose Retest to Identify Inhibitors of RecA-Intein Splicing Activity. [Related pubchem assays (depositor defined):AID2097, AID2223, AID489010, AID492950]. It counts as functional.

The target of assay [1] is T2, Replicative DNA helicase DnaB (Mycobacterium tuberculosis, UniProt P9WMR3).
T2 sequence (P9WMR3 whole entry): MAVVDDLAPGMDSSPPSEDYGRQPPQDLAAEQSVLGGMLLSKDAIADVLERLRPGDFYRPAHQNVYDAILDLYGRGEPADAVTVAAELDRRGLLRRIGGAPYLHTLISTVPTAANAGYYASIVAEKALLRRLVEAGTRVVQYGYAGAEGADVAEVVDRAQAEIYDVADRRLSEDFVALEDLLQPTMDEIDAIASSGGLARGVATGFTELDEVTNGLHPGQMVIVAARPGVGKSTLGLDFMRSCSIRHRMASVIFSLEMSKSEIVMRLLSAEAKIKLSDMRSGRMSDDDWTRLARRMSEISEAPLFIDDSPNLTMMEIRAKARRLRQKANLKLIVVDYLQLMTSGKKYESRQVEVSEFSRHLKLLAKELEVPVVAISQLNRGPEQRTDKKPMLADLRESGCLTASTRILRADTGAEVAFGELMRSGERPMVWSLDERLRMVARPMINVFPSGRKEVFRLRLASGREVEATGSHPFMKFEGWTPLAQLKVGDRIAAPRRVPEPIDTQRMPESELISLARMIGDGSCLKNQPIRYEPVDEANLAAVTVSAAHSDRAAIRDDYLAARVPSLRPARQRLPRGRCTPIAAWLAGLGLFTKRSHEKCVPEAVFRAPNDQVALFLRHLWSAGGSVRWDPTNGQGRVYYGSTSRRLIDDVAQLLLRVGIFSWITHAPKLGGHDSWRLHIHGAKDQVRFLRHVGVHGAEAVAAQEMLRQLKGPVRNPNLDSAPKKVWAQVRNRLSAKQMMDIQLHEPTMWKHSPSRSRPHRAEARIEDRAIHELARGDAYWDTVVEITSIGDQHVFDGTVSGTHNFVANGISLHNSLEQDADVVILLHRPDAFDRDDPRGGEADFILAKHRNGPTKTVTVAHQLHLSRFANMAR
The assay is described as follows: DnaB intein splicing inhibitors, dose response, biochemical, cell-free fluorescence (AID 449749). It counts as functional.

A short description of assay [2]: growth suppression of PTEN-null colon cells, dose response, cell-based, HCT116 PTEN knockout (AID 1047).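 Further: HCT116 colon tumor cells with PTEN knocked out; cells exposed to compound for 60 hours before readout; potency for loss of cell viability measured by luminescence.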 It counts as functional.
A further assay relates to BJ. In words: cytotoxicity toward Ras-transformed BJeLR fibroblasts, dose response, cell-based, alamar blue fluorescence, cherrypicked samples (AID 2631).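 Further: confirmatory dose-response assay in RAS-dependent BJ fibroblasts engineered with TERT, LT and ST, with cytotoxicity read by fluorescence.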 It counts as functional. Conditions: Homo sapiens. Background: Resazurin is reduced to fluorescent resorufin, in cell work by metabolically active cells.
The target in assay [3] is Heat shock protein HSP 90-alpha (Homo sapiens, UniProt P07900). In words: Luminescence-based dose response biochemical high throughput screening assay for inhibitors of the Heat Shock Protein 90 (HSP90). [Related pubchem assays: 1831 (Summary AID.), 1846 (Confirmation screen.), 1789 (Primary screen.)].

Consider `CCC(=O)OCCNc1cc(Sc2nccn2C)c2nonc2c1[N+](=O)[O-]`, for which the results for the EC50 (at Protein RecA; in assay [2]) were 1.37 µM (active) and 4.83 µM (active), respectively. Moreover, in assay [1], the AC50 was 2.9 µM (active).

`O=C1C(=O)c2ccccc2-c2ccccc21` [9,10-PHENANTHRENEQUINONE]: the values for the EC50 in the assay with BJ and at Protein RecA were 2.74 µM (inconclusive) and 7.45 µM (active), respectively. In addition, the AC50 in assay [1] was 6.47 µM (active).

On to `CCOC(=O)C1=C(c2ccc(OC)cc2)C(=O)c2ccccc2C1=O`, for which the 50% inhibitory concentration (IC50) in assay [3] is 0.322 µM (active). The EC50 is 0.605 µM (active) in the assay on BJ, 1.83 µM (active) on Protein RecA and 3.57 µM (active) in assay [2]. The AC50 in assay [1] is 4.41 µM (active).

Regarding `CCc1ccc(OCC(=O)N/N=C2\CC(=O)c3ccccc32)cc1`, the EC50 at Protein RecA was 1.24 µM (active); in assay [2] it was 10.2 µM (active). Further, the concentration at half-maximal activity (AC50) in assay [1] was 6.09 µM (active).

For `CCCCn1c(NC(=O)c2ccccc2Cl)c(C#N)c2nc3ccccc3nc21`, the IC50 in assay [3] is 6.15 µM (active).

`O=C1c2cc(F)ccc2-n2c1nc1ccccc1c2=O`: the half-maximal inhibitory concentration (IC50) in assay [3] is 0.433 µM (active). On Protein RecA, the EC50 was > 380 µM (inactive). In assay [1], the AC50 is > 120 µM (inactive).

Consider `O=C1C=C(N(CCO)Cc2ccccc2)c2ccccc2C1=O`, for which the concentration giving a half-maximal response (EC50) on Protein RecA was 0.402 µM (active). In assay [1], the half-maximal activity concentration (AC50) is > 380 µM (inconclusive).

Regarding `COCCCNC(=O)c1ccc2c3c(onc13)-c1ccccc1C2=O`, the concentration for a half-maximal effect (EC50) in the assay with BJ was 4.11 µM (active); at Protein RecA, 13 µM (active).
